These results are taken from US20060128724A1, “Pyrazole-substituted aminoheteroaryl compounds as protein kinase inhibitors” (AGOURON PHARMACEUTICALS, INC., priority 2004, published 2006).

For orientation: Ki means a dissociation constant, usually derived from enzyme kinetics or from competition with a known ligand.

In this test the target is T1, c-MET (HGFR) (Homo sapiens, UniProt P08581).
T1 construct: purchased Upstate 14-526
T1 sequence (P08581 974-1390 limits assumed): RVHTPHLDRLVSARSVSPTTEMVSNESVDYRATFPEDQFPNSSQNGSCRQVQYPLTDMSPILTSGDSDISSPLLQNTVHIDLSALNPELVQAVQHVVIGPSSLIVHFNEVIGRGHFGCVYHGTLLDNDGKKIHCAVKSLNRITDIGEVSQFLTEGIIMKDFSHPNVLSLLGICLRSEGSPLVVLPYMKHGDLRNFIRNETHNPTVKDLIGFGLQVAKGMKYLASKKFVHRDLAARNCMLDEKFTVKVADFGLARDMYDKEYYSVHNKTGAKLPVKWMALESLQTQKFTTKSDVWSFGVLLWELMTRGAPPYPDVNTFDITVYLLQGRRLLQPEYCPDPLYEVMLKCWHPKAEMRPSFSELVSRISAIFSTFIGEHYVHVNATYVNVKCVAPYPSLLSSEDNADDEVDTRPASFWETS
The experiment in a line: HGFR Continuous-Coupled Spectrophotometric Assay. It is filed as biochemical. Conditions: Met-2 substrate peptide, 50 nM HGFR, 37° C.; read-out: c-Met Ki. The text has this:
The following in vitro assay may be used to determine the level of activity and effect of the different compounds of the present invention on one or more of the PKs. Similar assays can be designed along the same lines for any PK using techniques well known in the art.
The general procedure is as follows: compounds and kinase assay reagents are introduced into test wells. The assay is initiated by addition of the kinase enzyme. Enzyme inhibitors reduce the measured activity of the enzyme.
In the continuous-coupled spectrophotometric assay the time-dependent production of ADP by the kinase is determined by analysis of the rate of consumption of NADH by measurement of the decrease in absorbance at 340 nm. As the PK produces ADP it is re-converted to ATP by reaction with phosphoenol pyruvate and pyruvate kinase. Pyruvate is also produced in this reaction. Pyruvate is subsequently converted to lactate by reaction with lactate dehydrogenase, which simultaneously converts NADH to NAD.
HGFR Continuous-Coupled Spectrophotometric Assay
This assay analyzes the tyrosine kinase activity of HGFR on the Met-2 substrate peptide, a peptide derived from the activation loop of the HGFR.
• 1. […] Dissolve up in 200 mM HEPES, pH 7.5 at 10 mM stock. • 3. 1 M PEP (phospho-enol-pyruvate) in 200 mM HEPES, pH 7.5 • 4. 100 mM NADH (B-Nicotinamide Adenine Dinucleotide, Reduced Form) in 200 mM HEPES, pH 7.5 • 5. 4 M MgCl2 (Magnesium Chloride) in ddH2O • 6. 1 M DTT (Dithiothreitol) in 200 mM HEPES, pH 7.5 • 7. 15 Units/mL LDH (Lactic Dehydrogenase) • 8. 15 Units/mL PK (Pyruvate Kinase) • 9. 5M NaCl dissolved in ddH2O • 10. Tween-20 (Protein Grade) 10% Solution • 11. 1 M HEPES buffer: (N-[2-Hydroxethyl]piperazine-N-[2-ethanesulfonic acid]) Sodium Salt. Dissolve in ddH2O, adjust pH to 7.5, bring volume to 1 L. Filter at 0.1 μm. • 12. […] 100% DMSO (SIGMA) • 14. […] Beckman DU-650 w/micro cell holders • 18. Beckman 4-position micro cell cuvette Procedure:
Prep Dilution Buffer (DB) for Enzyme (For 30 mL prep) • 1. DB final concentration is 2 mM DTT, 25 mM NaCl2, 5 mM MgCl2, 0.01% Tween-20, and 50 mM HEPES buffer, pH 7.5. • 2. Make up 50 mM HEPES by adding 1.5 mL 1 M HEPES into 28.1 mL of ddH2O. Add rest of the reagents. Into 50 mL conical vial, add 60 μL of 1M DTT, 150 μL 5M NaCl2, 150 μL 1M MgCl2, and 30 μL of 10% Tween-20 to give total volume of 30 mL. • 3. […] Aliquot out DB at 1 mL/tube and label tubes as “DB HGFR” • 5. Note: This can be prepared and stored ahead of time. • 6. Freeze un-used aliquots in microcentrifuge tubes at −20° C. freezer. […] For compound dilution plate, add 4 μL of 10 mM stock into column 1 of plate, and bring volume to 100 μL with 100% DMSO. • 2. Set up the Precision 2000 dilution method. A final concentration of 200 μM compound in 50% DMSO, 100 mM HEPES (1:2 serial dilution). Prep Coupled Enzymatic Buffer:
1. Final concentration in assay:
• 2. For a 10 mL reaction buffer add 10 μL of 1M PEP, 33 μL of 100 mM NADH, 50 μL of 4M MgCl2, 20 μL of 1M DTT, 6 μL of 500 mM ATP, and 500 μL of 10 mM Met-2 peptide into 100 mM HEPES buffer pH 7.5 and vortex/mix. • 3. Add coupling enzymes, LDH and PK, into reaction mix. Mix by gentle inversion. Running Samples
1. Spectrophotometer settings:
• 2. Add 85 μL of CE reaction mix into each well of assay plate. • 3. Add 5 μL of diluted compound into a well of the assay plate. • 4. Add 5 μL of 50% DMSO for negative control into last column of assay plate. • 5. Mix with multi-channel pipettor or orbital shaker. • 6. Pre-incubate for 10 minutes at 37° C. • 7. Add 10 μL of 500 nM HGFR to each well of assay plate; the final HGFR concentration is 50 nM in a total final volume of 100 μL. • 8. Measure activity for 10 minutes at λ=340 nm and 37° C.
For the molecule `CC(Oc1cc(-c2cnn(C(C)(C)C(=O)NCCN3CCCC3)c2)cnc1N)c1c(Cl)ccc(F)c1Cl` (stereo not drawn) [Example 21, 2-(4-{6-Amino-5-[1-(2,6-dichloro-3-fluoro-phenyl)-ethoxy]-pyridin-3-yl}-pyrazol-1-yl)-N-(2-pyrrolidin-1-yl-ethyl)-isobutyramide], the Ki turned out to be 60 nM.
For `CC(C)Cn1cc(-c2cnc(N)c(OC(C)c3c(Cl)ccc(F)c3Cl)c2)cn1` (stereo not drawn) [Example 22, 3-[1-(2,6-Dichloro-3-fluoro-phenyl)-ethoxy]-5-(1-isobutyl-1H-pyrazol-4-yl)-pyridin-2-ylamine], the Ki came to 100 nM.
For `CC(Oc1cc(-c2cnn(CC(C)(C)C)c2)cnc1N)c1c(Cl)ccc(F)c1Cl` (stereo not drawn) [Example 23, 3-[1-(2,6-Dichloro-3-fluoro-phenyl)-ethoxy]-5-[1-(2,2-dimethyl-propyl)-1H-pyrazol-4-yl]-pyridin-2-ylamine], the Ki stood at 120 nM.
As for `CCN(CC)CCNC(=O)C(C)(C)n1cc(-c2cnc(N)c(OC(C)c3c(Cl)ccc(F)c3Cl)c2)cn1` (stereo not drawn) [Example 24, 2-(4-{6-Amino-5-[1-(2,6-dichloro-3-fluoro-phenyl)-ethoxy]-pyridin-3-yl}pyrazol-1-yl)-N-(2-diethylamino-ethyl)-isobutyramide], the Ki was 220 nM.
The result for `CC(Oc1cc(-c2cnn(C3CCOC3)c2)cnc1N)c1c(Cl)ccc(F)c1Cl` (stereo not drawn) [Example 27, 3-[1-(2,6-Dichloro-3-fluoro-phenyl)-ethoxy]-5-[1-(tetrahydro-furan-3-yl)-1H-pyrazol-4-yl]-pyridin-2-ylamine] reads 40 nM; that for `CC(Oc1cc(-c2cnn(CC3CC4CCC3O4)c2)cnc1N)c1c(Cl)ccc(F)c1Cl` (stereo not drawn) [Example 28, 3-[1-(2,6-Dichloro-3-fluoro-phenyl)-ethoxy]-5-[1-(7-oxa-bicyclo[2.2.1]hept-2-ylmethyl)-1H-pyrazol-4-yl]-pyridin-2-ylamine], 60 nM; that for `CC(Oc1cc(-c2cnn(C(C)(C)C(=O)NCCCO)c2)cnc1N)c1c(Cl)ccc(F)c1Cl` (stereo not drawn) [Example 32, 2-(4-{6-Amino-5-[1-(2,6-dichloro-3-fluoro-phenyl)-ethoxy]-pyridin-3-yl}-pyrazol-1-yl)-N-(3-hydroxy-propyl)-isobutyramide], 70 nM.
Take `Cc1nn(C(C)(C)C(=O)O)cc1-c1cnc(N)c(OC(C)c2c(Cl)ccc(F)c2Cl)c1` (stereo not drawn) [Example 33, 2-(4-{6-Amino-5-[1-(2,6-dichloro-3-fluoro-phenyl)-ethoxy]-pyridin-3-yl}-3-methyl-pyrazol-1-yl)-2-methyl-propionic acid]: the inhibition constant (Ki) amounted to 130 nM.
In the case of `COCCNC(=O)C(C)(C)n1cc(-c2cnc(N)c(OC(C)c3c(Cl)ccc(F)c3Cl)c2)cn1` (stereo not drawn) [Example 34, 2-(4-{6-Amino-5-[1-(2,6-dichloro-3-fluoro-phenyl)-ethoxy]-pyridin-3-yl}-pyrazol-1-yl)-N-(2-methoxy-ethyl)-isobutyramide], the Ki turned out to be 90 nM.
The result for `CC(Oc1cc(-c2cnn(C(C)(C)C(=O)NCCO)c2)cnc1N)c1c(Cl)ccc(F)c1Cl` (stereo not drawn) [Example 35, 2-(4-{6-Amino-5-[1-(2,6-dichloro-3-fluoro-phenyl)-ethoxy]-pyridin-3-yl}-pyrazol-1-yl)-N-(2-hydroxy-ethyl)-isobutyramide] reads 60 nM.
Take `Cc1nn(C(C)(C)C(=O)NCCCN(C)C)cc1-c1cnc(N)c(OC(C)c2c(Cl)ccc(F)c2Cl)c1` (stereo not drawn) [Example 36, 2-(4-{6-Amino-5-[1-(2,6-dichloro-3-fluoro-phenyl)-ethoxy]-pyridin-3-yl}-3-methyl-pyrazol-1-yl)-N-(3-dimethylamino-propyl)-isobutyramide]: the inhibition constant (Ki) is 90 nM.
On to `Cc1nn(C(C)(C)C(=O)NCCN2CCCC2)cc1-c1cnc(N)c(OC(C)c2c(Cl)ccc(F)c2Cl)c1` (stereo not drawn) [Example 37, 2-(4-{6-Amino-5-[1-(2,6-dichloro-3-fluoro-phenyl)-ethoxy]-pyridin-3-yl}3-methyl-pyrazol-1-yl)-N-(2-pyrrolidin-1-yl-ethyl)-isobutyramide], for which the Ki is 70 nM.
Turning to `CC(Oc1cc(-c2cnn(C3CCN(C(C)C)CC3)c2)cnc1N)c1c(Cl)ccc(F)c1Cl` (stereo not drawn) [Example 38, 3-[1-(2,6-Dichloro-3-fluoro-phenyl)-ethoxy]-5-[1-(1-isopropyl-piperidin-4-yl)-1H-pyrazol-4-yl]-pyridin-2-ylamine], the inhibitory constant (Ki) was found to be 10 nM.
The figure for `CC(Oc1cc(-c2cnn(C3CCN(C)CC3)c2)cnc1N)c1c(Cl)ccc(F)c1Cl` (stereo not drawn) [Example 39, 3-[1-(2,6-Dichloro-3-fluoro-phenyl)-ethoxy]-5-[1-(1-methyl-piperidin-4-yl)-1H-pyrazol-4-yl]-pyridin-2-ylamine] is 10 nM; for `CC(Oc1cc(-c2cnn(C3CCN(C(=O)CO)CC3)c2)cnc1N)c1c(Cl)ccc(F)c1Cl` (stereo not drawn) [Example 40, 1-[4-(4-{6-Amino-5-[1-(2,6-dichloro-3-fluoro-phenyl)-ethoxy]-pyridin-3-yl}-pyrazol-1-yl)-piperidin-1-yl]-2-hydroxy-ethanone] it is 10 nM; for `CC(=O)N1CCC(n2cc(-c3cnc(N)c(OC(C)c4c(Cl)ccc(F)c4Cl)c3)cn2)CC1` (stereo not drawn) [Example 41, 1-[4-(4-{6-Amino-5-[1-(2,6-dichloro-3-fluoro-phenyl)-ethoxy]-pyridin-3-yl}-pyrazol 1-yl)-piperidin-1-yl]-ethanone] it is 10 nM.
In the case of `CC(Oc1cc(-c2cnn(C3CCN(CC#N)CC3)c2)cnc1N)c1c(Cl)ccc(F)c1Cl` (stereo not drawn) [Example 42, [4-(4-{6-Amino-5-[1-(2,6-dichloro-3-fluoro-phenyl)-ethoxy]-pyridin-3-yl}-pyrazol-1-yl)-piperidin-1-yl]-acetonitrile], the Ki was found to be 20 nM.
As to `CCN1CCC(n2cc(-c3cnc(N)c(OC(C)c4c(Cl)ccc(F)c4Cl)c3)cn2)CC1` (stereo not drawn) [Example 43, 3-[1-(2,6-Dichloro-3-fluoro-phenyl)-ethoxy]-5-[1-(1-ethyl-piperidin-4-yl)-1H-pyrazol-4-yl]-pyridin-2-ylamine], the inhibition constant Ki came out at 10 nM.
With `CC(Oc1cc(-c2cnn(C3CCN(C(=O)CN(C)C)CC3)c2)cnc1N)c1c(Cl)ccc(F)c1Cl` (stereo not drawn) [Example 44, 1-[4-(4-{6-Amino-5-[1-(2,6-dichloro-3-fluoro-phenyl)-ethoxy]-pyridin-3-yl}-pyrazol-1-yl)-piperidin-1-yl]-2-dimethylamino-ethanone], the Ki is 10 nM.
Regarding `CC(Oc1cc(-c2cnn(C3CCN(CC4CC4)CC3)c2)cnc1N)c1c(Cl)ccc(F)c1Cl` (stereo not drawn) [Example 45, 5-[1-(1-Cyclopropylmethyl-piperidin-4-yl)-1H-pyrazol-4-yl]-3-[1-(2,6-dichloro-3-fluoro-phenyl)-ethoxy]-pyridin-2-ylamine], the Ki turned out to be 10 nM.
As for `C[C@@H](Oc1cc(-c2cnn(C3CCN(C)CC3)c2)cnc1N)c1c(Cl)ccc(F)c1Cl` [Example 46, 3-[(R)-1-(2,6-Dichloro-3-fluoro-phenyl)-ethoxy]-5-[1-(1-methyl-piperidin-4-yl)-1H-pyrazol-4-yl]-pyridin-2-ylamine], the inhibition constant (Ki) was 10 nM.
